Data taken from patent publication US20150246067A1, “ANTIVIRAL TREATMENT OF LYMPHOMA AND CANCER” (THE REGENTS OF THE UNIVERSITY OF MICHIGAN, priority 2009, published 2015).

Tested on: HERV K (HML2)
Experiment: Reverse transcriptase activity in supernatants of drug-treated NCCIT cells (Reverse Transcription Assay Kit)
Assay type: cell-based, human
Conditions: 7 days, increasing doses of drug, supernatant, FIGS. 4A-I
Experimental: HIV antivirals were assayed to determine which antiviral agents have an antiviral effect against HERV K (HML2). The NCCIT cell line derived from a teratocarcinoma produces many HERV K (HML2) viral particles. NCCIT cells were maintained at 40% confluence in 6-well plates in RPMI medium and incubated for 7 days in the presence of increasing doses of nucleoside or non-nucleoside reverse transcriptase inhibitors or HIV protease inhibitors. Drugs, provided as lyophilized powders by the AIDS Research and Reference Reagent Program, were resuspended to a final concentration of 10 mg/mL (except for PFA: 60 mg/mL) in different solvents as recommended (SEE table 1). Cells were incubated for 7 days at increasing doses of drugs or the vehicle of solution as controls. Supernatants were collected and cell debris was removed by centrifugation at 2300 rpm for 20 min. Supernatant was assessed for Reverse Transcriptase Activity using the Reverse Transcription Assay Kit (Invitrogen) as described by the manufacturer. In addition, supernatants were treated with 20 units of DNAse (Roche) for 1 hour at 37° C. and viral RNA was extracted using the Viral RNA mini kit (Qiagen) as described by the manufacturer. The HERV-K type 2 viral load was measured by quantitative Real Time RT-PCR using primers that expand the type-2 env gene region, which is absent in type-1 viruses, Kenv type2F: 5′-[…]-3′ (SEQ ID NO. 1), and Kenv type2R: 5′-[…]-3′ (SEQ ID NO. 2). Standard curves were generated using serial dilutions of in vitro RNA transcripts as external calibrators. In a similar way, quantities of HERV—K type 2 proviruses were measured by Real Time PCR using 500 ng of isolated DNA.

Structure (SMILES)	HERV K (HML2) RT activity
CC(C)OC(=O)OCOP(=O)(CO[C@H](C)Cn1cnc2c(N)ncnc21)OCOC(=O)OC(C)C [tenofovir disoproxil, Tenofovir disoproxyl fumarato]	reduction
Nc1nc(NC2CC2)c2ncn([C@H]3C=C[C@@H](CO)C3)c2n1 [Abacavir]	reduction
O=c1[nH]cnc2c1ncn2[C@H]1CC[C@@H](CO)O1 [ddI, Dideoxyinosine]	reduction
Cc1cn([C@H]2C[C@H](N=[N+]=[N-])[C@@H](CO)O2)c(=O)[nH]c1=O [AZT, Zidovudine]	reduction
Nc1ccn([C@H]2CC[C@@H](CO)O2)c(=O)n1 [ddC, zalcitabine]	reduction
Cc1cn([C@H]2C=C[C@@H](CO)O2)c(=O)[nH]c1=O [d4T, Stavudine]	reduction
Nc1nc(=O)n([C@@H]2CS[C@H](CO)O2)cc1F [FTC, Emtricitabine]	reduction
O=c1nc(NO)ccn1[C@@H]1O[C@H](CO)[C@@H](O)[C@H]1O [β-D hydroxycytidine, β-d hydroxy cytidine]	reduction
